Experiment: Solubility evaluation of electrochromic compound
Conditions: dissolved to saturation, filtered through 0.5 μm PTFE filter, residue weighed; for Solubility, solvent TFP: 2,2,3,3-tetrafluoropropanol (TFP); for Solubility, solvent DMF: N,N-dimethylformamide (DMF)
Excerpt: The residue was filtered with a PTFE filter having the average pore diameter of 0.5 μm, and the solvent was dried under the reduced pressure. Then, the residue was weight to calculate an amount of the solute dissolved in each solvent.

Row | Compound | Solubility, solvent TFP | Solubility, solvent DMF
1 | O=P(O)(O)CCCCCCCC[n+]1ccc(-c2ccc(-c3cccs3)cc2)cc1.[Br-] [Compound 1b] | A (the solubility of 5% by mass or greater was attained relative to each solvent) | A (the solubility of 5% by mass or greater was attained relative to each solvent)
2 | O=P(O)(O)CCCCCCCC[n+]1ccc(-c2ccc(-c3cncs3)cc2)cc1.[Br-] [Compound 2b] | A (the solubility of 5% by mass or greater was attained relative to each solvent) | A (the solubility of 5% by mass or greater was attained relative to each solvent)
3 | O=P(O)(O)CCCCCCCC[n+]1ccc(-c2ccc(-c3nccs3)cc2)cc1.[Br-] [Compound 3b] | A (the solubility of 5% by mass or greater was attained relative to each solvent) | A (the solubility of 5% by mass or greater was attained relative to each solvent)
4 | COc1nc(OC)nc(-c2ccc(-c3cc[n+](CCCCCCCCP(=O)(O)O)cc3)cc2)n1.[Br-] [Compound 4b] | A (the solubility of 5% by mass or greater was attained relative to each solvent) | A (the solubility of 5% by mass or greater was attained relative to each solvent)
5 | O=P(O)(O)CCCCCCCC[n+]1ccc(-c2ccc(-c3nc(-c4ccccc4)nc(-c4ccccc4)n3)cc2)cc1.[Br-] [Compound 5b] | A (the solubility of 5% by mass or greater was attained relative to each solvent) | A (the solubility of 5% by mass or greater was attained relative to each solvent)
6 | O=P(O)(O)CCCCCCCC[n+]1ccc(-c2ccc(-c3ncccn3)cc2)cc1.[Br-] [Compound 6b] | A (the solubility of 5% by mass or greater was attained relative to each solvent) | A (the solubility of 5% by mass or greater was attained relative to each solvent)
7 | O=P(O)(O)CCCCCCCC[n+]1cccc(-c2ccc(-c3cccs3)cc2)c1 [Compound 12b] | A (the solubility of 5% by mass or greater was attained relative to each solvent) | A (the solubility of 5% by mass or greater was attained relative to each solvent)

— patent publication US9932522B2, “Electrochromic compound, electrochromic composition, display element, and dimming element” (Ricoh Company, Ltd., priority 2014, dated 2018)
